In one test the test system is ovaries of PAMH F3 mice. In words: RT-qPCR gene expression in ovaries of SAM-treated PAMH F3 mice. The class given is in vivo, mouse. Here is the method: Ovaries tissues were harvest from control F1 and PAMH F3 female mice, frozen ovaries were homogenized using 1 ml of Trizol (ThermoFisher Scientific, Cat #15596026) with a tissue homogenizer and total RNA was isolated using RNeasy Lipid Tissue Mini Kit (Qiagen; Cat #74804) following the manufacturer's instructions. For gene expression analyses, cDNA was synthetized from 1000 ng of total RNA using the High capacity RNA-to-cDNA kit (Applied Biosystems, Cat #4387406) using the manufacturer's recommended cycling conditions. Real-time PCR was carried out on Applied Biosystems 7900HT Fast Real-Time PCR system using exon-boundary-specific TaqMan® Gene Expression Assays (Applied Biosystems) (Table S4). Data were analyzed by using the 2^−ΔΔCT method (Livak and Schmittgen, 2001) and normalized to housekeeping genes Beta-actin (ActB) levels. Values are expressed relative to control values, as appropriate, set at 1.
(§1) PAMH F3 female offspring (6 months-old) were cycled for 10 days before treatment, and for additional 15 days during the treatment. CNTR female offspring (6 months-old) were not treated and were cycled for 25 days. Vaginal cytology was analyzed under an inverted microscope to record the specific stage of the estrous cycle. PAMH F3 offspring were injected intraperitoneally (i.p.) daily for 15 days with 200 μL of a solution containing 0.01M phosphate buffered saline (PBS, pH 7.4) or with SAM (50 mg/Kg/day; New England Biolegends, Cat. B9003S). This concentration was chosen based on previous in vivo pharmacological studies using the same drug (Li et al., 2012). Tail-blood samples were collected for LH and T measurements at dioestrus before the beginning of the treatments, at day 10, and at the end of the treatment, at day 25.

Test [1] concerns PAMH F3 female offspring (PCOS-like mice). Put plainly: SAM treatment of PAMH F3 female mice: estrous cyclicity, LH, T, body composition, pancreatic islets. Type of test: in vivo, mouse. Here is the method: Control F1 and PAMH F1-F3 female offspring were weaned at post-natal day P21 and checked for vaginal opening (VO) and time of first estrus. Anogenital distance (AGD) and body mass (grams, g) were measured at different ages during post-natal development (P30, 35, 40, 50 and 60). At VO and in adulthood (P60), vaginal smears were performed daily for 16 consecutive days (4-cycles) for analysis of age of first estrus and estrous cyclicity. Vaginal cytology was analyzed under an inverted microscope to identify the specific stage of the estrous cycle. The reproductive competency of these animals was determined by pairing the following mice: CNTR F1 females mated with CNTR F1 males, CNTR F1 males mated with PAMH F1-F3 females, PAMH F1-F3 females mated with PAMH F1-F3 males, for a period of 3 months. Unexperienced males and primiparous females, selected from at least three different litters, were used for the 90-days mating protocol test. Number of pups/litter (number of pups), fertility index (number of litters per females over 3 months), and time to first litter (number of days to first litter after pairing) were quantified per treatment and pairing.
LH levels were determined by a sandwich ELISA, as described previously (Steyn et al., 2013), using the mouse LH-RP reference provided by A. F. Parlow (National Hormone and Pituitary Program, Torrance, CA). Plasma T levels were analyzed using a commercial ELISA (Demeditec Diagnostics, GmnH, DEV9911) (Moore et al., 2015) according to the manufacturers' instructions.
Whole body fat, fluids, and lean tissue mass were determined by Nuclear Magnetic Resonance (MiniSpec mq 7.5, RMN Analyser, Bruker) according to the manufacturer's recommendations.
as §1

Test [2] concerns NgTET1. Conditions: cited from earlier work.
In test [3] the target is T1, NgTET1 (Naegleria gruberi, UniProt D2W6T1).
T1 sequence (D2W6T1 1-321): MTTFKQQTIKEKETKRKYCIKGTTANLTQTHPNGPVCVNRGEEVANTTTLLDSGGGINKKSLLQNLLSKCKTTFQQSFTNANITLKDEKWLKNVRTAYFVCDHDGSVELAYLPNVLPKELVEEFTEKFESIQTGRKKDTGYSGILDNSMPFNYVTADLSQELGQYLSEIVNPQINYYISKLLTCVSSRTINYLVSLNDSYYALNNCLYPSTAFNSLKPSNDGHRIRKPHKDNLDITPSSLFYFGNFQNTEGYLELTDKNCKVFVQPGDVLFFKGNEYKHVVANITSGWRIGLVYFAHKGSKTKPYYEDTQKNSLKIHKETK
Conditions: cited from earlier work.

A further test has as its target mTET1 (Mus musculus, UniProt Q3URK3). Conditions: cited from earlier work.
Test [4] addresses T2, TET1 catalytic domain (TET1CD) (Homo sapiens, UniProt Q8NFU7).
T2 sequence (Q8NFU7 1418-2136 limits assumed): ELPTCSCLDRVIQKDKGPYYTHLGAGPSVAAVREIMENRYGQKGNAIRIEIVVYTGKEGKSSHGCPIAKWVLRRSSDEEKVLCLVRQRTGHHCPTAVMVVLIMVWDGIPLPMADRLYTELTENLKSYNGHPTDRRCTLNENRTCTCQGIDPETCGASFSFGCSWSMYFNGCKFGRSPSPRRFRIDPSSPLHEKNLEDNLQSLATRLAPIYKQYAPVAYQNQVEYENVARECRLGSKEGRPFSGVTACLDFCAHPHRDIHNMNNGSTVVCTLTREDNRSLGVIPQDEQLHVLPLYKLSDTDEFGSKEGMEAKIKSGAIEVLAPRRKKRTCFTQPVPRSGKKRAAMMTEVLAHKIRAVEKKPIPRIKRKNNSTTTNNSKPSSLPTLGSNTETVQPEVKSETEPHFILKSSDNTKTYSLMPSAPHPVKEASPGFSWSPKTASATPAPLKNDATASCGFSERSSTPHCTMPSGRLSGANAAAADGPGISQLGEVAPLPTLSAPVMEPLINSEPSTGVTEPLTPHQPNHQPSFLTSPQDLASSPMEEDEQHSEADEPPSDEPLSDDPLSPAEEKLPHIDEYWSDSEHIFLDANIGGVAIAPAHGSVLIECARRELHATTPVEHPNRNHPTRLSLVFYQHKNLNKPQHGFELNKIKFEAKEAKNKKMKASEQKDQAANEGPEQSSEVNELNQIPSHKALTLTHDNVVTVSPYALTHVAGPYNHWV
Conditions: cited from earlier work.

Setting [5] is: PAMH F3 females, SAM 50 mg/kg/day i.p. for 15 days.
Setting [6] is: PAMH F3 females, dioestrus, day 25, SAM 50 mg/kg/day i.p. for 15 days.

No end group written: not given here.

The values below come from patent publication US20240011094A1, “METHODS FOR DIAGNOSIS AND TREATING POLYCYSTIC OVARY SYNDROME (PCOS)” (INSTITUT NATIONAL DE LA SANTÉ ET DE LA RECHERCHE MÉDICALE, priority 2020, published 2024).

In general, IC50 refers to the point on the concentration scale where inhibition reaches its midpoint. By Kd is commonly meant the equilibrium constant for the complex coming apart.

mTET1, sequence (Q3URK3 whole entry, the tested form may be a part): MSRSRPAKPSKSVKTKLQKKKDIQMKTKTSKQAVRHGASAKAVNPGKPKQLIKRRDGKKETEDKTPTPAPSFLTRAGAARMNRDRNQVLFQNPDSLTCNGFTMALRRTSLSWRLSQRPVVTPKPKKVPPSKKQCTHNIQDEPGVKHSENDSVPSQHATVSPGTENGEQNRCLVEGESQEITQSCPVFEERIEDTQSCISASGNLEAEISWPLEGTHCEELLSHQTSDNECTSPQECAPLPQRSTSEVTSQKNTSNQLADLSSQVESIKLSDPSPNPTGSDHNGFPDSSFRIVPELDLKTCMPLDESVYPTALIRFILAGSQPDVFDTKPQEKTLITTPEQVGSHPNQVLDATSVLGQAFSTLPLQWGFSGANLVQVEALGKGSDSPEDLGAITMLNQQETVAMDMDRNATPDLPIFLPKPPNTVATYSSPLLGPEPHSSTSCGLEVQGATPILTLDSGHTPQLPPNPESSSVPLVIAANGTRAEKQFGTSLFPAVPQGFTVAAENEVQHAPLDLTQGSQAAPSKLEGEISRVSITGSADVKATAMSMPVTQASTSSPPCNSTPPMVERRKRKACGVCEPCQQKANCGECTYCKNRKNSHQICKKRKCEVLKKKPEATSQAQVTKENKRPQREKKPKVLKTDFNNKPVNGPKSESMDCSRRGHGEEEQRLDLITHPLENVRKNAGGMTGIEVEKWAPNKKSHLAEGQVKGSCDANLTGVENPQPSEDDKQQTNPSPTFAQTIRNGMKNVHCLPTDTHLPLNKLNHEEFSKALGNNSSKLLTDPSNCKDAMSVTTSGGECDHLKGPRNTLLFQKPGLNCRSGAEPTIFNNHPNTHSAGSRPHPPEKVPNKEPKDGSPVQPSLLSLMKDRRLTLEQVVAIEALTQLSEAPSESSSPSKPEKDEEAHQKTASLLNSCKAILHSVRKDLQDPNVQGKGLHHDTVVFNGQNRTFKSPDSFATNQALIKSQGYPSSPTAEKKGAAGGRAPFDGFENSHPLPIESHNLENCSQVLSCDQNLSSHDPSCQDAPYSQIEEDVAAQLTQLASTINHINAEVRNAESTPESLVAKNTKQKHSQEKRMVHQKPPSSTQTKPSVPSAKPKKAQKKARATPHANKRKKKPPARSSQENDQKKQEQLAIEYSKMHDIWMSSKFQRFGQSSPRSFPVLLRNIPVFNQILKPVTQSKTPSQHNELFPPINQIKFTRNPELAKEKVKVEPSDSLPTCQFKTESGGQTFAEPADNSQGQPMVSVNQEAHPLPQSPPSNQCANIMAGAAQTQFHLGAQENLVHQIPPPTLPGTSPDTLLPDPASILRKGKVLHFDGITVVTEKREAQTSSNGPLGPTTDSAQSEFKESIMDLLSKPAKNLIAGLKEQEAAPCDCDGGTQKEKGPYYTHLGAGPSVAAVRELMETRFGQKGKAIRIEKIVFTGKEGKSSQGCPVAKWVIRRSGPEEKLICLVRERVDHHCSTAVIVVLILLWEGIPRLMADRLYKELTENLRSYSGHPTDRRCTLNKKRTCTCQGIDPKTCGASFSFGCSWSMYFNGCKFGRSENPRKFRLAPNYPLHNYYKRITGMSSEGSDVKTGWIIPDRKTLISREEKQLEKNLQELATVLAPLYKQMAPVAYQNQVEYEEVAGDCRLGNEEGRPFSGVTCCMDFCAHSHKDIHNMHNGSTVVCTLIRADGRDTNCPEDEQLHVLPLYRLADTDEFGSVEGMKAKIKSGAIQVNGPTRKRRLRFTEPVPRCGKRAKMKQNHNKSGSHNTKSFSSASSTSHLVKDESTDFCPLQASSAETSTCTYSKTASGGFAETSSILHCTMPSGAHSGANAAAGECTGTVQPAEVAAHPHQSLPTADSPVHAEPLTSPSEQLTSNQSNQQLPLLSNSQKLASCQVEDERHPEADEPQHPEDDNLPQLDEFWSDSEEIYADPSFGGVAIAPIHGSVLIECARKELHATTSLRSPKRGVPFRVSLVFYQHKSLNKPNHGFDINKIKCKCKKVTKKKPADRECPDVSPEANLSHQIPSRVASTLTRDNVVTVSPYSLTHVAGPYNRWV

`C[S@@+](CC[C@H](N)C(=O)[O-])C[C@H]1O[C@@H](n2cnc3c(N)ncnc32)[C@H](O)[C@@H]1O` (stereo in doubt) [SAM, S-Adenosyl methionine]: in the test on ovaries of PAMH F3 mice, the “Hdc ovarian gene expression” value is on record as “rescue”, the “NF-κB mRNA in ovaries” value was “normalized”, the “Ptgs2 mRNA in ovaries” value was “normalized” and the “Sorbs2 expression in ovaries” value is “remained unaltered”. The “Uhrf1 expression in ovaries” value in the test on ovaries of PAMH F3 mice is “restored”. Besides, the “Tet1 transcript levels in ovarian tissues” value in the test on ovaries of PAMH F3 mice (compared with controls) was “unaltered”. For the same molecule, the “percentage of completed estrous cycles” value in test [1] (PAMH F3 females, 6 months-old, SAM 50 mg/kg/day i.p. for 15 days) is recorded as 75%. Besides, in test [1] (setting [5]), the “body mass composition, % of fat mass” value is “normalized”; the “body mass composition, % of lean mass” value is listed as “normalized”; the “size of the islet of Langerhans” value is recorded as “normalized”; the “time spent in each estrous cycle stage (ovulation)” value is on record as “restored normal ovulation”. In test [1] (setting [6]), the LH concentrations result is recorded as “normalized” and the T concentrations result is “normalized”. The “major PCOS-like neuroendocrine, reproductive and metabolic traits” value in test [1] (PAMH F3 mice, postnatal SAM treatment) is listed as “rescue”.
In the case of `O=C(O)CCC(=O)C(=O)O` [Molecule 3, 2-oxoglutraric acid], in the test with NgTET1 [2], the IC50 is 250 µM.
In the case of `O=C(O)CNC(=O)C(=O)O` [Molecule 30, N-oxalylglycine], the IC50 in the test with NgTET1 [2] is 49 µM.
As for `O=C(O)/C=C/C(=O)N(O)CCCCCCCCNC(=S)Nc1ccc(-c2c3ccc(=O)cc-3oc3cc(O)ccc23)c(C(=O)O)c1` [Molecule 33], the Kd on NgTET1 [3] was 0.25 µM.
For the molecule `O=C(O)c1ccnc(C(=O)O)c1` [Molecule 35, 2,4-pyridinedicarboxylic acid], the IC50 with NgTET1 [2] was 27 µM.
Turning to Fumarate [Molecule 32], the IC50 on mTET1 is 390 µM.
In the case of “cyclic peptide TET1 inhibitor, SEQ ID 5: (Ac)YYRVKTYYQITYVYLSC [Molecule 38]”, the IC50 in the test with NgTET1 [2] is 1.44 µM.
Turning to “cyclic peptide TET1 inhibitor, SEQ ID No 3: (Ac)YLIYAYYTWWEHSC (Ac-YLIYAYYTWWEHSC; not fully specified (bridges)) [Molecule 36]”, the “selectivity, inhibition of TET1CD over TET2CD” value in test [4] is reported as “tenfold”. The IC50 in the test with NgTET1 [2] is 1.48 µM.
In the case of “cyclic peptide TET1 inhibitor, SEQ ID No 4: (Ac)YWYLPSYRVPWFC [Molecule 37]”, the half-maximal inhibitory concentration (IC50) in the test with NgTET1 [2] was 1.13 µM.
